Data reported in the supplement of paper PMC10733146.

Columns and labels:
Test in all cases: viability relative to DMSO control (fraction); higher = less drug effect (more viable cells)
Settings in all cases: 48 h
[1] = system: primary CLL patient cells (S031)
Procedure, shortened: (§1)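 Primary mononuclear tumour cells (Ficoll-isolated from blood or bone marrow, or processed lymph node; fresh or cryopreserved) were plated at 4 × 10^4 cells per well in 384-well plates with pre-plated compounds at five concentrations, one well each. Medium was RPMI-1640 with penicillin/streptomycin, L-glutamine and human serum, at 37 °C and 5% CO2 for 48 h. Viability was read as CellTiter-Glo luminescence relative to the median of 16 inner DMSO wells.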

[2] = system: primary B-PLL patient cells (S016)
Procedure, shortened: as §1

[3] = system: primary AML patient cells (S071)
Procedure, shortened: as §1

[4] = system: primary ALL patient cells (S088)
Procedure, shortened: as §1

[5] = system: primary DLBCL patient cells (S076)
Procedure, shortened: as §1

[6] = system: primary AML patient cells (S060)
Procedure, shortened: as §1

[7] = system: primary DLBCL patient cells (S082)
Procedure, shortened: as §1

[8] = system: primary AML patient cells (S085)
Procedure, shortened: as §1

[9] = system: primary DLBCL patient cells (S049)
Procedure, shortened: as §1

[10] = system: primary T-NHL patient cells (S058)
Procedure, shortened: as §1

[11] = system: primary AML patient cells (S007)
Procedure, shortened: as §1

[12] = system: primary AML patient cells (S019)
Procedure, shortened: as §1

[13] = system: primary AML patient cells (S011)
Procedure, shortened: as §1

[14] = system: primary FL patient cells (S087)
Procedure, shortened: as §1

[15] = system: primary AML patient cells (S091)
Procedure, shortened: as §1

[16] = system: primary AML patient cells (S037)
Procedure, shortened: as §1

[17] = system: primary AML patient cells (S089)
Procedure, shortened: as §1

[18] = system: primary MCL patient cells (S041)
Procedure, shortened: as §1

CC#CC(=O)N1CCC[C@H]1c1nc(-c2ccc(C(=O)Nc3ccccn3)cc2)c2c(N)nccn12 [Acalabrutinib (ACP-196)]
viability ([1]; 0.008 µM): 0.877 | viability ([1]; 0.04 µM): 0.817 | viability ([1]; 0.2 µM): 0.742 | viability ([1]; 1 µM): 0.722 | viability ([1]; 5 µM): 0.713 | viability ([2]; 0.008 µM): 0.748 | viability ([2]; 0.04 µM): 0.627 | viability ([2]; 0.2 µM): 0.601 | viability ([2]; 1 µM): 0.549 | viability ([2]; 5 µM): 0.6 | viability ([3]; 0.008 µM): 1.06 | viability ([3]; 0.04 µM): 1.02 | viability ([3]; 0.2 µM): 1.01 | viability ([3]; 1 µM): 1.01 | viability ([3]; 5 µM): 0.994 | viability ([4]; 0.008 µM): 1.04 | viability ([4]; 0.04 µM): 1.04 | viability ([4]; 0.2 µM): 1.04 | viability ([4]; 1 µM): 1.02 | viability ([4]; 5 µM): 1.16 | viability ([5]; 0.008 µM): 1.08 | viability ([5]; 0.04 µM): 1.14 | viability ([5]; 0.2 µM): 1.11 | viability ([5]; 1 µM): 1.12 | viability ([5]; 5 µM): 1.06 | viability ([6]; 0.008 µM): 1.08 | viability ([6]; 0.04 µM): 1.06 | viability ([6]; 0.2 µM): 1.04 | viability ([6]; 1 µM): 1.05 | viability ([6]; 5 µM): 1.05 | viability ([7]; 0.008 µM): 0.804 | viability ([7]; 0.04 µM): 0.675 | viability ([7]; 0.2 µM): 0.559 | viability ([7]; 1 µM): 0.462 | viability ([7]; 5 µM): 0.447 | viability ([8]; 0.008 µM): 1.05 | viability ([8]; 0.04 µM): 1.14 | viability ([8]; 0.2 µM): 1.01 | viability ([8]; 1 µM): 0.989 | viability ([8]; 5 µM): 1.02 | viability ([9]; 0.008 µM): 0.892 | viability ([9]; 0.04 µM): 0.758 | viability ([9]; 0.2 µM): 0.693 | viability ([9]; 1 µM): 0.74 | viability ([9]; 5 µM): 0.704 | viability ([10]; 0.008 µM): 1.16 | viability ([10]; 0.04 µM): 1.21 | viability ([10]; 0.2 µM): 1.14 | viability ([10]; 1 µM): 1.25 | viability ([10]; 5 µM): 1.06 | viability ([11]; 0.008 µM): 0.895 | viability ([11]; 0.04 µM): 0.945 | viability ([11]; 0.2 µM): 0.911 | viability ([11]; 1 µM): 1.07 | viability ([11]; 5 µM): 1.04 | viability ([12]; 0.008 µM): 1.09 | viability ([12]; 0.04 µM): 1.2 | viability ([12]; 0.2 µM): 1.08 | viability ([12]; 1 µM): 1.12 | viability ([12]; 5 µM): 1.06 | viability ([13]; 0.008 µM): 1.03 | viability ([13]; 0.04 µM): 1.02 | viability ([13]; 0.2 µM): 1.01 | viability ([13]; 1 µM): 0.864 | viability ([13]; 5 µM): 1.01 | viability ([14]; 0.008 µM): 1.08 | viability ([14]; 0.04 µM): 1.03 | viability ([14]; 0.2 µM): 1.07 | viability ([14]; 1 µM): 0.994 | viability ([14]; 5 µM): 1.04 | viability ([15]; 0.008 µM): 0.945 | viability ([15]; 0.04 µM): 1.06 | viability ([15]; 0.2 µM): 0.979 | viability ([15]; 1 µM): 1.01 | viability ([15]; 5 µM): 1.07 | viability ([16]; 0.008 µM): 1.07 | viability ([16]; 0.04 µM): 1.62 | viability ([16]; 0.2 µM): 1.07 | viability ([16]; 1 µM): 1.22 | viability ([16]; 5 µM): 1.05 | viability ([17]; 0.008 µM): 0.975 | viability ([17]; 0.04 µM): 0.996 | viability ([17]; 0.2 µM): 0.91 | viability ([17]; 1 µM): 0.679 | viability ([17]; 5 µM): 0.629 | viability ([18]; 0.008 µM): 1 | viability ([18]; 0.04 µM): 1 | viability ([18]; 0.2 µM): 0.859 | viability ([18]; 1 µM): 0.899 | viability ([18]; 5 µM): 0.855

CC(C)c1cc(C(=O)N2Cc3ccc(CN4CCN(C)CC4)cc3C2)c(O)cc1O [Onalespib]
viability ([1]; 0.0032 µM): 0.896 | viability ([1]; 0.016 µM): 0.929 | viability ([1]; 0.08 µM): 0.432 | viability ([1]; 0.4 µM): 0.235 | viability ([1]; 2 µM): 0.246 | viability ([2]; 0.0032 µM): 0.875 | viability ([2]; 0.016 µM): 1.35 | viability ([2]; 0.08 µM): 0.668 | viability ([2]; 0.4 µM): 0.69 | viability ([2]; 2 µM): 0.629 | viability ([3]; 0.0032 µM): 0.847 | viability ([3]; 0.016 µM): 0.379 | viability ([3]; 0.08 µM): 0.149 | viability ([3]; 0.4 µM): 0.169 | viability ([3]; 2 µM): 0.168 | viability ([4]; 0.0032 µM): 0.659 | viability ([4]; 0.016 µM): 0.582 | viability ([4]; 0.08 µM): 0.255 | viability ([4]; 0.4 µM): 0.273 | viability ([4]; 2 µM): 0.253 | viability ([6]; 0.0032 µM): 0.967 | viability ([6]; 0.016 µM): 1.15 | viability ([6]; 0.08 µM): 0.61 | viability ([6]; 0.4 µM): 0.169 | viability ([6]; 2 µM): 0.109 | viability ([7]; 0.0032 µM): 0.967 | viability ([7]; 0.016 µM): 1.24 | viability ([7]; 0.08 µM): 1.03 | viability ([7]; 0.4 µM): 1.22 | viability ([7]; 2 µM): 0.961 | viability ([8]; 0.0032 µM): 0.928 | viability ([8]; 0.016 µM): 0.942 | viability ([8]; 0.08 µM): 0.334 | viability ([8]; 0.4 µM): 0.233 | viability ([8]; 2 µM): 0.237 | viability ([11]; 0.0032 µM): 0.566 | viability ([11]; 0.016 µM): 0.114 | viability ([11]; 0.08 µM): 0.0773 | viability ([11]; 0.4 µM): 0.102 | viability ([11]; 2 µM): 0.111 | viability ([12]; 0.0032 µM): 0.594 | viability ([12]; 0.016 µM): 1.1 | viability ([12]; 0.08 µM): 0.265 | viability ([12]; 0.4 µM): 0.57 | viability ([12]; 2 µM): 0.371 | viability ([13]; 0.0032 µM): 0.712 | viability ([13]; 0.016 µM): 0.916 | viability ([13]; 0.08 µM): 0.399 | viability ([13]; 0.4 µM): 0.684 | viability ([13]; 2 µM): 0.66 | viability ([14]; 0.0032 µM): 0.962 | viability ([14]; 0.016 µM): 1.02 | viability ([14]; 0.08 µM): 0.853 | viability ([14]; 0.4 µM): 0.84 | viability ([14]; 2 µM): 0.871 | viability ([15]; 0.0032 µM): 1.14 | viability ([15]; 0.016 µM): 0.967 | viability ([15]; 0.08 µM): 0.733 | viability ([15]; 0.4 µM): 0.304 | viability ([15]; 2 µM): 0.234 | viability ([16]; 0.0032 µM): 0.914 | viability ([16]; 0.016 µM): 0.992 | viability ([16]; 0.08 µM): 0.887 | viability ([16]; 0.4 µM): 0.962 | viability ([16]; 2 µM): 0.916 | viability ([17]; 0.0032 µM): 1.17 | viability ([17]; 0.016 µM): 0.872 | viability ([17]; 0.08 µM): 0.234 | viability ([17]; 0.4 µM): 0.235 | viability ([17]; 2 µM): 0.173 | viability ([18]; 0.0032 µM): 0.95 | viability ([18]; 0.016 µM): 1.05 | viability ([18]; 0.08 µM): 0.724 | viability ([18]; 0.4 µM): 0.53 | viability ([18]; 2 µM): 0.445
